Measured values from PubChem BioAssay AID1963983 (Molecular Pharmacology Branch, DTP, NCI, 2024).
Several values for one entry are separate records, joined by “and”; a condition that tells them apart may be missing. Equal values may be shown once. One block for each compound: values may come before it.

Test system: 186277-243-T-J2-PDC multi-cell spheroid viability
Experiment: Anticancer human tumor 186277-243-T-J2-PDC patient-derived colon adenocarcinoma cell line growth inhibition [PI3K]
Conditions: for viability, T/C: stronger effect = lower value
Procedure, shortened: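 We assembled tumor spheroids that included a stromal compartment of HUVEC and MSCs, then exposed them to targeted agents alone and together with PI3K pathway inhibitors. Concentration series descended by half-log from clinically achievable Cmax levels. Viability served as the endpoint.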

[1] = curve of first compound, second compound 0.0316 µM
[2] = curve of first compound, second compound 0.1 µM
[3] = curve of first compound, second compound 0.316 µM
[4] = curve of first compound, second compound 1 µM
[5] = curve of first compound, second compound 3.16 µM
[6] = curve of first compound, second compound 10 µM
[7] = second compound 0.0316 µM, first compound 0.0316 µM
[8] = second compound 0.0316 µM, first compound 0.1 µM
[9] = second compound 0.0316 µM, first compound 0.316 µM
[10] = second compound 0.0316 µM, first compound 1 µM
[11] = second compound 0.0316 µM, first compound 3.16 µM
[12] = second compound 0.0316 µM, first compound 10 µM
[13] = second compound 0.1 µM, first compound 0.0316 µM
[14] = second compound 0.1 µM, first compound 0.1 µM
[15] = second compound 0.1 µM, first compound 0.316 µM
[16] = second compound 0.1 µM, first compound 1 µM
[17] = second compound 0.1 µM, first compound 3.16 µM
[18] = second compound 0.1 µM, first compound 10 µM
[19] = second compound 0.316 µM, first compound 0.0316 µM
[20] = second compound 0.316 µM, first compound 0.1 µM
[21] = second compound 0.316 µM, first compound 0.316 µM
[22] = second compound 0.316 µM, first compound 1 µM
[23] = second compound 0.316 µM, first compound 3.16 µM
[24] = second compound 0.316 µM, first compound 10 µM
[25] = second compound 1 µM, first compound 0.0316 µM
[26] = second compound 1 µM, first compound 0.1 µM
[27] = second compound 1 µM, first compound 0.316 µM
[28] = second compound 1 µM, first compound 1 µM
[29] = second compound 1 µM, first compound 3.16 µM
[30] = second compound 1 µM, first compound 10 µM
[31] = second compound 3.16 µM, first compound 0.0316 µM
[32] = second compound 3.16 µM, first compound 0.1 µM
[33] = second compound 3.16 µM, first compound 0.316 µM
[34] = second compound 3.16 µM, first compound 1 µM
[35] = second compound 3.16 µM, first compound 3.16 µM
[36] = second compound 3.16 µM, first compound 10 µM
[37] = second compound 10 µM, first compound 0.0316 µM
[38] = second compound 10 µM, first compound 0.1 µM
[39] = second compound 10 µM, first compound 0.316 µM
[40] = second compound 10 µM, first compound 1 µM
[41] = second compound 10 µM, first compound 3.16 µM
[42] = second compound 10 µM, first compound 10 µM
[43] = curve of first compound, second compound 0.00316 µM
[44] = curve of first compound, second compound 0.01 µM
[45] = second compound 0.00316 µM, first compound 0.0316 µM
[46] = second compound 0.00316 µM, first compound 0.1 µM
[47] = second compound 0.00316 µM, first compound 0.316 µM
[48] = second compound 0.00316 µM, first compound 1 µM
[49] = second compound 0.00316 µM, first compound 3.16 µM
[50] = second compound 0.00316 µM, first compound 10 µM
[51] = second compound 0.01 µM, first compound 0.0316 µM
[52] = second compound 0.01 µM, first compound 0.1 µM
[53] = second compound 0.01 µM, first compound 0.316 µM
[54] = second compound 0.01 µM, first compound 1 µM
[55] = second compound 0.01 µM, first compound 3.16 µM
[56] = second compound 0.01 µM, first compound 10 µM
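Also: spheroids exposed to compounds for seven days before viability reading.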
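For viability, T/C in this document: 100% = DMSO vehicle control viability.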

SMILES: Cn1cnc2c(F)c(Nc3ccc(Br)cc3Cl)c(C(=O)NOCCO)cc21
viability, T/C (compound 0.00949 µM): 97.9% [middle of 4 runs]
viability, T/C (compound 0.03 µM): 87.4% [middle of 4 runs]
viability, T/C (compound 0.0949 µM): 61.9% [middle of 4 runs]
viability, T/C (compound 0.3 µM): 38% and 43.4% (2×) and 37.6%
viability, T/C (compound 0.949 µM): 22.7% [middle of 4 runs]
viability, T/C (compound 3 µM): 9.95% [middle of 4 runs]
IC50 (curve of compound): 193 nM [middle of 4 runs]

SMILES: CC(Cn1ccc(-c2ccc(C#N)c(Cl)c2)n1)NC(=O)c1cc(C(C)O)[nH]n1 (configuration not stated) + CC(Nc1ncnc2nc[nH]c12)c1cc2cccc(Cl)c2c(=O)n1-c1ccccc1
IC50 [1]: > 10 µM
IC50 [2]: > 10 µM
IC50 [3]: > 10 µM
IC50 [4]: > 10 µM
IC50 [5]: > 10 µM
IC50 [6]: > 10 µM
viability, T/C [7]: 91%
viability, T/C [8]: 109%
viability, T/C [9]: 101%
viability, T/C [10]: 90.2%
viability, T/C [11]: 93.7%
viability, T/C [12]: 97.9%
viability, T/C [13]: 98.2%
viability, T/C [14]: 94.8%
viability, T/C [15]: 94.9%
viability, T/C [16]: 103%
viability, T/C [17]: 101%
viability, T/C [18]: 88.3%
viability, T/C [19]: 92.3%
viability, T/C [20]: 104%
viability, T/C [21]: 95.7%
viability, T/C [22]: 93.1%
viability, T/C [23]: 98.5%
viability, T/C [24]: 102%
viability, T/C [25]: 92.7%
viability, T/C [26]: 108%
viability, T/C [27]: 114%
viability, T/C [28]: 92.1%
viability, T/C [29]: 94.4%
viability, T/C [30]: 84.1%
viability, T/C [31]: 89.6%
viability, T/C [32]: 102%
viability, T/C [33]: 116%
viability, T/C [34]: 97.3%
viability, T/C [35]: 106%
viability, T/C [36]: 94.5%
viability, T/C [37]: 98%
viability, T/C [38]: 83.4%
viability, T/C [39]: 84.3%
viability, T/C [40]: 98.9%
viability, T/C [41]: 90.1%
viability, T/C [42]: 78.8%

SMILES: C[C@@H](NC(=O)c1ncnc(N)c1Cl)c1ncc(C(=O)Nc2cc(C(F)(F)F)c(Cl)cn2)s1 + COc1c(OCCCN2CCOCC2)ccc2c3n(c(=NC(=O)c4cnc(N)nc4)nc12)CCN3
IC50 [43]: > 10 µM
IC50 [44]: 8.02 µM
IC50 [1]: 1.64 µM
IC50 [2]: < 0.0316 µM
IC50 [3]: < 0.0316 µM
IC50 [4]: < 0.0316 µM
viability, T/C [45]: 97.9%
viability, T/C [46]: 94%
viability, T/C [47]: 107%
viability, T/C [48]: 90.4%
viability, T/C [49]: 108%
viability, T/C [50]: 67.7%
viability, T/C [51]: 128%
viability, T/C [52]: 102%
viability, T/C [53]: 113%
viability, T/C [54]: 96.9%
viability, T/C [55]: 98.4%
viability, T/C [56]: 38.7%
viability, T/C [7]: 87.7%
viability, T/C [8]: 82%
viability, T/C [9]: 81.6%
viability, T/C [10]: 68.5%
viability, T/C [11]: 25.9%
viability, T/C [12]: 5.51%
viability, T/C [13]: 37.9%
viability, T/C [14]: 30.7%
viability, T/C [15]: 25.7%
viability, T/C [16]: 13.2%
viability, T/C [17]: 7.38%
viability, T/C [18]: 4.45%
viability, T/C [19]: 7.07%
viability, T/C [20]: 7.19%
viability, T/C [21]: 7.95%
viability, T/C [22]: 6.31%
viability, T/C [23]: 1.83%
viability, T/C [24]: 1.23%
viability, T/C [25]: 4.1%
viability, T/C [26]: 2.89%
viability, T/C [27]: 2.41%
viability, T/C [28]: 2.48%
viability, T/C [29]: 1.54%
viability, T/C [30]: 0.23%

Now from value to compound, other results behind:

IC50 [43]: 4.9 µM
IC50 [44]: 5.6 µM
IC50 [1]: 5.16 µM
IC50 [2]: < 0.0316 µM
IC50 [3]: < 0.0316 µM
IC50 [4]: < 0.0316 µM
SMILES: CCCS(=O)(=O)Nc1ccc(F)c(C(=O)c2c[nH]c3ncc(-c4ccc(Cl)cc4)cc23)c1F + COc1c(OCCCN2CCOCC2)ccc2c3n(c(=NC(=O)c4cnc(N)nc4)nc12)CCN3
viability, T/C [45]: 114%
viability, T/C [46]: 99.1%
viability, T/C [47]: 84.9%
viability, T/C [48]: 83.5%
viability, T/C [49]: 79.4%
viability, T/C [50]: 14.2%
viability, T/C [51]: 105%
viability, T/C [52]: 90.1%
viability, T/C [53]: 110%
viability, T/C [54]: 90.3%
viability, T/C [55]: 87%
viability, T/C [56]: 13.8%
viability, T/C [7]: 81.1%
viability, T/C [8]: 68.5%
viability, T/C [9]: 96.3%
viability, T/C [10]: 88.2%
viability, T/C [11]: 77.9%
viability, T/C [12]: 12.2%
viability, T/C [13]: 23.1%
viability, T/C [14]: 27.3%
viability, T/C [15]: 29.4%
viability, T/C [16]: 46.7%
viability, T/C [17]: 46%
viability, T/C [18]: 7.08%
viability, T/C [19]: 7.65%
viability, T/C [20]: 8.23%
viability, T/C [21]: 7.39%
viability, T/C [22]: 8.35%
viability, T/C [23]: 12.3%
viability, T/C [24]: 2.99%
viability, T/C [25]: 3.27%
viability, T/C [26]: 3.82%
viability, T/C [27]: 3.96%
viability, T/C [28]: 4.58%
viability, T/C [29]: 7.64%
viability, T/C [30]: 2.38%

IC50 [43]: 4.74 µM
IC50 [44]: 5.43 µM
IC50 [1]: 5.34 µM
IC50 [2]: 5.03 µM
IC50 [3]: 4.57 µM
IC50 [4]: 4.11 µM
SMILES: CCCS(=O)(=O)Nc1ccc(F)c(C(=O)c2c[nH]c3ncc(-c4ccc(Cl)cc4)cc23)c1F + CC(Nc1ccc2c(c1)OCCn1cc(N3C(=O)OCC3C(F)F)nc1-2)C(N)=O
viability, T/C [45]: 108%
viability, T/C [46]: 91.5%
viability, T/C [47]: 92.4%
viability, T/C [48]: 83.9%
viability, T/C [49]: 77.4%
viability, T/C [50]: 6.03%
viability, T/C [51]: 118%
viability, T/C [52]: 90.4%
viability, T/C [53]: 83.8%
viability, T/C [54]: 90.5%
viability, T/C [55]: 89.9%
viability, T/C [56]: 5.05%
viability, T/C [7]: 112%
viability, T/C [8]: 103%
viability, T/C [9]: 102%
viability, T/C [10]: 95.6%
viability, T/C [11]: 88.7%
viability, T/C [12]: 6.11%
viability, T/C [13]: 101%
viability, T/C [14]: 105%
viability, T/C [15]: 118%
viability, T/C [16]: 113%
viability, T/C [17]: 81.2%
viability, T/C [18]: 4%
viability, T/C [19]: 81%
viability, T/C [20]: 80.3%
viability, T/C [21]: 87.1%
viability, T/C [22]: 105%
viability, T/C [23]: 71.5%
viability, T/C [24]: 4.62%
viability, T/C [25]: 59%
viability, T/C [26]: 60.9%
viability, T/C [27]: 70.4%
viability, T/C [28]: 65.1%
viability, T/C [29]: 63.2%
viability, T/C [30]: 5.04%

IC50 [1]: 4.68 µM
IC50 [2]: 4.44 µM
IC50 [3]: 4.35 µM
IC50 [4]: 3.93 µM
IC50 [5]: 1.5 µM
IC50 [6]: < 0.0316 µM
SMILES: CC1(C)CCC(CN2CCN(c3ccc(C(=O)NS(=O)(=O)c4ccc(NCC5CCOCC5)c([N+](=O)[O-])c4)c(Oc4cnc5[nH]ccc5c4)c3)CC2)=C(c2ccc(Cl)cc2)C1 + Cc1nc(NC(=O)N2CCCC2C(N)=O)sc1-c1ccnc(C(C)(C)C(F)(F)F)c1
viability, T/C [7]: 101%
viability, T/C [8]: 92.7%
viability, T/C [9]: 106%
viability, T/C [10]: 89.9%
viability, T/C [11]: 74.6%
viability, T/C [12]: 3.75%
viability, T/C [13]: 96.5%
viability, T/C [14]: 109%
viability, T/C [15]: 95.3%
viability, T/C [16]: 101%
viability, T/C [17]: 69.8%
viability, T/C [18]: 2.39%
viability, T/C [19]: 101%
viability, T/C [20]: 85.7%
viability, T/C [21]: 111%
viability, T/C [22]: 104%
viability, T/C [23]: 68.2%
viability, T/C [24]: 2.68%
viability, T/C [25]: 101%
viability, T/C [26]: 112%
viability, T/C [27]: 96.9%
viability, T/C [28]: 89.7%
viability, T/C [29]: 61.5%
viability, T/C [30]: 0.93%
viability, T/C [31]: 54.2%
viability, T/C [32]: 61.3%
viability, T/C [33]: 58.9%
viability, T/C [34]: 51.8%
viability, T/C [35]: 43%
viability, T/C [36]: 0.38%
viability, T/C [37]: 16.6%
viability, T/C [38]: 15.8%
viability, T/C [39]: 16.6%
viability, T/C [40]: 12.8%
viability, T/C [41]: 13.8%
viability, T/C [42]: 0.48%
